Laboratory results as given in publication PMC6628435, “Chemical Synthesis, Proper Folding, Nav Channel Selectivity Profile and Analgesic Properties of the Spider Peptide Phlotoxin 1” (Toxins, 2019).
Bridge positions count the residues as written; N and C are the ends. Peptide text beside a SMILES is read from it.

Legend:
Nav1.1/β1 = assay: Two-electrode voltage-clamp on Xenopus laevis oocytes expressing Nav1.1/β1; format: cell-based; conditions: 1 µM; voltage of maximum sodium influx, holding −90 mV; oocytes TEVC; n ≥ 3
Source text: (§1) Using the two-electrode voltage-clamp technique on Xenopus laevis oocytes, the effect of PhlTx1 was also compared on eight different cloned vertebrate Nav channels co-expressed with the β1 subunit (Nav1.1-1.8/β1) and on the neuronal insect Nav channel, para, co-expressed with the tipE subunit (Figure 3 and Figure 4). […] Normalized current-voltage relationships (I-V curve) of Nav1.2/β1 and Nav1.3/β1 channels seemed to be shifted towards more negative potentials when PhlTx1 was applied, but shifts were not statistically significant […] (Figure 4). The activation phase of the other studied Nav channel subtypes was not affected. No obvious alteration in channel availability was observed, except a 5-mV negative shift for Nav1.3/β1, although that was also non-significant (p > 0.05).
(§2) Figure 4 1 µM of PhlTx1 was tested on Nav1.1/β1, Nav1.2/β1, Nav1.3/β1, Nav1.4/β1, Nav1.5/β1, Nav1.6/β1, Nav1.8/β1 and para/tipE (n ≥ 3). Left column: current traces were evoked by a 50-ms depolarization to the voltage of maximum sodium influx, depending on the Nav studied, from a holding potential of −90 mV. At 1 µM PhlTx1, all studied Nav channels, except Nav1.4/β1, were blocked for about 10% (no toxin: *). The current of Nav1.4/β1 was reduced for about 35 ± 5%. Middle column: normalized I-V curves reveal no significant shift of the activation voltage (p > 0.05). […]

Nav1.2/β1 = assay: Two-electrode voltage-clamp on Xenopus laevis oocytes expressing Nav1.2/β1; format: cell-based; conditions: 1 µM; voltage of maximum sodium influx, holding −90 mV; oocytes TEVC; n ≥ 3
Source text: as §1, §2

Nav1.5/β1 = assay: Two-electrode voltage-clamp on Xenopus laevis oocytes expressing Nav1.5/β1; format: cell-based; conditions: 1 µM; voltage of maximum sodium influx, holding −90 mV; oocytes TEVC; n ≥ 3
Source text: as §1, §2

Kv3.4 = assay: Ion channel selectivity screen, voltage-clamp, heterologous expression in Xenopus laevis oocytes and/or COS cells; format: cell-based; conditions: 1 μM PhlTx1
[1] = mice; PhlTx1 100 pmoles or morphine 0.25 mg in 10 µL

CC(C)C[C@@H]1NC(=O)[C@@H](NC(=O)[C@H](C)N)CSSC[C@@H]2NC(=O)[C@@H]3CSSC[C@@H](C(=O)N[C@@H](CCCNC(=N)N)C(=O)N[C@@H](Cc4ccc(O)cc4)C(=O)N[C@@H](CCCCN)C(=O)N[C@@H](CC(C)C)C(=O)N[C@@H](Cc4ccccc4)C(=O)O)NC(=O)[C@H](Cc4c[nH]c5ccccc45)NC(=O)[C@@H]4CCCN4C(=O)[C@H](Cc4ccc(O)cc4)NC(=O)[C@H](CCCCN)NC(=O)[C@H](Cc4c[nH]c5ccccc45)NC(=O)[C@H](CCC(=O)O)NC(=O)[C@H](CSSC[C@H](NC(=O)[C@H](CO)NC(=O)[C@H](CC(=O)O)NC(=O)[C@H](Cc4c[nH]c5ccccc45)NC(=O)[C@H](CCC(N)=O)NC(=O)CNC1=O)C(=O)N[C@@H](CC(=O)O)C(=O)N1CCC[C@H]1C(=O)N[C@@H](CCCCN)C(=O)N[C@@H](C)C(=O)N[C@@H](CO)C(=O)N[C@@H](CCCCN)C(=O)N3)NC(=O)[C@H](C)NC(=O)[C@H](Cc1ccc(O)cc1)NC(=O)[C@H](CC(N)=O)NC(=O)[C@@H]1CCCN1C2=O [PhlTx1, Phlotoxin-1] (H-ACLGQWDSCDPKASKCCPNYACEWKYPWCRYKLF-OH; disulfide 2-17, 9-22, 16-29; N-terminus and C-terminus assumed)
block of sodium current (Nav1.1/β1): about 10% | block of sodium current (Nav1.2/β1): about 10% | block of sodium current (Nav1.5/β1): about 10% | current inhibition at the voltage of maximum ion flux (Kv3.4): ~20% | neurotoxicity after intrathecal injection [1]: no neurotoxicity was observed
